Patent US12473259B2, “Anhydrous crystal of monosodium n-(2-ethylsulfonylamino-5-trifluoromethyl-3-pyridyl)cyclohexane carboxamide” (ISHIHARA SANGYO KAISHA, LTD., priority 2019, dated 2025)

What was measured:
Format in all cases: physicochemical
[1] = Long diameter, short diameter and aspect ratio by particle shape image analyzer PITA-3; settings: for Aspect ratio (d50): long diameter (d50)/short diameter (d50)
Description: Regarding the anhydrous crystal obtained in Production Example 1 and the monohydrous crystal as a raw material, the long diameter and the short diameter were measured using a particle shape image analyzer PITA-3 (SEISHIN ENTERPRISE Co., Ltd.), and the aspect ratio was calculated.
The longest diameter in the particle was regarded as the long diameter, and the shortest diameter in the particle was regarded as the short diameter. The aspect ratio was calculated by the following formula: Aspect ratio=long diameter/short diameter
Specifically, measurement was performed under the following conditions:
Carrier liquid: n-hexane+lecithin
Dispersion condition: ultrasonic wave for 5 minutes
Flow rate of first carrier liquid: 500.00 μL/second
Flow rate of second carrier liquid: 500.00 μL/second
Flow rate of sample dispersion liquid: 0.42 μL/second
Observation magnification: 10 times
Light control filter: None
Number of particles observed: 6,992 (anhydrous crystal) or 9,628 (monohydrous crystal)

[2] = BET specific surface area by nitrogen adsorption method; settings: BET multipoint method, nitrogen gas
Description: The specific surface area was measured by a nitrogen adsorption method using Flow sorb II 2300 (Shimadzu Corporation). Specifically, the BET specific surface area was measured by a BET multipoint method by nitrogen adsorption under the following conditions: • Sample amount: 0.2 g • Deaeration condition: 150° C. (anhydrous), 80° C. (monohydrous) • Adsorption gas: nitrogen gas

[3] = Angle of repose (Japanese Pharmacopoeia); settings: compared with the monohydrous crystal
Description: Regarding the particles of the anhydrous crystal obtained in Production Example 1 and the monohydrous crystal, the angle of repose was measured in accordance with Angle of repose mentioned in the Japanese Pharmacopoeia, Seventeenth Edition.

[4] = Measurement of solubility in distilled water (HPLC); settings: room temperature, shaken 1 hour, saturated solution
Description: After 10 mL of distilled water was put into 0.5 g of the anhydrous crystal obtained in Production Example 1 or the monohydrous crystal as a raw material, the solution was horizontally shaken with a shaker (manufactured by TAITEC CORPORATION, STRONG SHAKER SR-2DS) at room temperature and at a shaking speed of 150 strokes/min and a shaking width of 4 cm/stroke for 1 hour. Thereafter, a precipitate was confirmed to be remained, and centrifugation (3,000 rpm×10 minutes) was performed to take a supernatant, followed by filtration using a membrane filter to obtain a supernatant of a saturated solution. 2 mL of the supernatant of the saturated solution was weighed in a 20 mL volumetric flask to make a constant volume with a mobile phase, and this was used as a sample solution, followed by measurement of solubility under the following HPLC conditions: • Analyzer: HPLC ACQUITY Arc system (manufactured by Waters K. K.) • Mobile phase: acetonitrile/water/acetic acid=50/49.5/0.5, v/v • Detector: ultraviolet spectrophotometer λ=276 nm (1 Au/V) • Column: Nucleosil 5 C18 (4.6 φ×250 mm) (manufactured by MACHEREY-NAGEL GmbH & Co. KG) • Column temperature: 50° C. • Flow rate: 1.075 ml/min • Injection volume: 20 μL • Measurement time: 40 minutes

[5] = Tapped density and bulk density, powder tester (Japanese Pharmacopoeia Method 3); settings: 100 mL cylindrical container; for Tapped density: 100 times per 3 minutes
Description: Regarding the anhydrous crystal obtained in Production Example 1 and the monohydrous crystal as a raw material, the bulk density and the tapped density were measured with a powder tester type A.B.D-72 (TSUTSUI SCIENTIFIC INSTRUMENTS Co., Ltd.) in accordance with of Method 3 (measuring vessel) of Determination of Bulk Density and Method 3 of Determination of Tapped Density mentioned in the Japanese Pharmacopoeia, Seventeenth Edition. Specifically, regarding the bulk density, an excess of a sample was freely fallen through the apparatus into a cylindrical container (volume of 100 mL, inner diameter of 5.05 cm) until a container overflowed. Then, the edge of a spatula standing vertically in contact with the top surface of the container was moved smoothly, and an excess of the sample was carefully slashed off from the top surface of the container. The bulk density was calculated by dividing the mass (g) of the sample in the container by a volume of 100 mL. The tapped density was, specifically, measured as a density when the sample was filled in a cylindrical container (volume of 100 mL, inner diameter of 5.05 cm) in the same manner as for the bulk density measurement and was fallen using the apparatus at a rate of 100 times per 3 minutes.

[6] = Observation of particle shape by scanning electron microscopy; settings: SEM micrograph
Source text: Micrographs of particles of the anhydrous crystal of the present invention and the monohydrous crystal were taken using scanning electron microscopy (SEM) (Hitachi, Ltd., S-3200N).

| SMILES | Long diameter (d50) [1] | Short diameter (d50) [1] | Aspect ratio (d50) [1] | Specific surface area [2] | Angle of repose [3] | Solubility [4] | Bulk density [5] | Tapped density [5] | Particle shape [6] | solubility at 1 h ([4]; water, thermodynamic from solid) |
| --- | --- | --- | --- | --- | --- | --- | --- | --- | --- | --- |
| CCS(=O)(=O)Nc1ncc(C(F)(F)F)cc1NC(=O)C1CCCCC1.[Na] [Anhydrous crystal, monosodium N-(2-ethylsulfonylamino-5-trifluoromethyl-3-pyridyl)cyclohexane carboxamide] | 6.09 μm | 3.34 μm | 1.82 | 3.38 m^2/g | smaller than the angle of repose of the particle of the monohydrous crystal | 204 mg/L | 0.289 g/mL | 0.367 g/mL | massive |  |
| CCS(=O)(=O)Nc1ncc(C(F)(F)F)cc1NC(=O)C1CCCCC1.[Na] [Monohydrous crystal, monosodium N-(2-ethylsulfonylamino-5-trifluoromethyl-3-pyridyl)cyclohexane carboxamide] | 15.80 μm | 3.19 μm | 4.95 | 4.36 m^2/g |  |  | 0.18 g/mL | 0.207 g/mL | needle like | 160 µg/mL |
